Experimental data taken from the NIST ThermoML archive (doi:10.1016/j.fluid.2014.06.026).

Conditions: 101.33 kPa, Liquid; for viscosity: Cone and plate viscometry; for mass density: Vibrating tube method

c1cn(CCOCCOCCOCCn2ccnc2)cn1
Conditions	mass density [kg/m3]	viscosity [mPa·s]
298.2 K	1172.67	535.6
303.2 K	1168.77	356
308.2 K	1164.87	240.2
313.2 K	1161.05	178.2
318.2 K	1157.29	129.2
323.2 K	1153.51	93.9
328.2 K	1149.74	69.8
333.2 K	1145.96	56.8
338.2 K	1142.19	44.9
343.2 K	1138.43	36.7
348.2 K	1134.66	29.1
353.2 K	1130.91	24.9

CCCCCCCCCCCCn1ccnc1 [1-dodecyl-1H-imidazole]
Conditions	mass density [kg/m3]	viscosity [mPa·s]
298.2 K	898.68	24
303.2 K	895.23	20.1
308.2 K	891.79	15.9
313.2 K	888.35	13.3
318.2 K	884.92	11.1
323.2 K	881.49	9.42
328.2 K	878.07	8.06
333.2 K	874.64	6.96
338.2 K	871.22	6
343.2 K	867.81	5.33
348.2 K	864.4	4.7
353.2 K	860.98	4.16
